In publication PMC10653066 (ACS Omega, 2023):
Read-outs that look alike come from different tables or passages of the source.

How the values were obtained:
YFV 17D [1] = conditions: read-out: EC50 against YFV; cited from earlier work
YFV 17D [2] = test: microbe, parasite or virus in culture; assay type: cell-based, Yellow fever virus; conditions: for EC50: Yellow fever virus, Huh-7, read-out: EC50 (YFV 17D, μM)

| Molecule | activity against YFV (words, SAR discussion) (YFV 17D [2]) | also measured |
| --- | --- | --- |
| N#Cc1c(Nc2ccc(F)cc2)n[nH]c1NS(=O)(=O)c1ccc2ccccc2c1 [RCB16003, N-(4-Cyano-3-((4-fluorophenyl)amino)-1H-pyrazol-5-yl)naphthalene-2-sulfonamide] |  | EC50 (YFV 17D [1]): 3.2 µM |
| CC(=O)c1ccc2c(S(=O)(=O)n3nc(Nc4ccc(C#N)c(Cl)c4)nc3N)cccc2c1 [RCB22055, 4-((1-((6-Acetylnaphthalen-1-yl)sulfonyl)-5-amino-1H-1,2,4-triazol-3-yl)amino)-2-chlorobenzonitrile] | low micromolar activity |  |
| N#Cc1c(Nc2ccc(F)c(F)c2)n[nH]c1NS(=O)(=O)c1ccc2ccccc2c1 [RCB16004, N-(4-Cyano-3-((3,4-difluorophenyl)amino)-1H-pyrazol-5-yl)naphthalene-2-sulfonamide] |  | EC50 (YFV 17D [2]): > 36 µM |
| 4-((1-((6-Acetylnaphthalen-1-yl)sulfonyl)-5-amino-1H-1,2,4-triazol-3-yl)amino)benzonitrile [RCB22056] | inactive |  |
| Nc1nc(Nc2ccc(Cl)c(Cl)c2)n(S(=O)(=O)c2ccc3ccccc3c2)n1 [RCB17160, N^5-(3,4-Dichlorophenyl)-1-(naphthalen-2-ylsulfonyl)-1H-1,2,4-triazole-3,5-diamine] | did not display any activity |  |
| N#Cc1c(Nc2ccc(Cl)cc2)n[nH]c1NS(=O)(=O)c1ccc2ccccc2c1 [RCB16002, N-(3-((4-Chlorophenyl)amino)-4-cyano-1H-pyrazol-5-yl)naphthalene-2-sulfonamide] |  | EC50 (YFV 17D [2]): 7.1 µM |
| COc1ccc(Nc2nc(N)n(S(=O)(=O)c3cccc4ccccc34)n2)cc1 [RCB16086, N^3-(4-Methoxyphenyl)-1-(naphthalen-1-ylsulfonyl)-1H-1,2,4-triazole-3,5-diamine] | complete loss of potency |  |
